Tested on: P. gingivalis adherence to S. gordonii
Experiment: Inhibition of P. gingivalis adherence to S. gordonii in two-species biofilm model
Type: cell-based, P. gingivalis ATCC33277; S. gordonii DL-1
Conditions: Group III
From the text: To assess the functional activity of the click products, compounds 28-57 (Groups I and II) and 90-124 (Group III) were examined for inhibition of P. gingivalis adherence to S. gordonii using an established biofilm model system as described in the Section 4.2.1 [41]. For each compound tested, an IC50 value for adherence inhibition was approximated after quantifying the ratio of green to red fluorescence and these values are shown in Tables 2, 3 and 4. Compounds were classified as strong (IC50<10 μM), moderate (IC50=10-20 μM) or weak (IC50>20 μM) inhibitors of adherence. Twelve compounds were identified as strong inhibitors and an additional ten compounds were classified as moderate inhibitors. […] Compounds 54, 56, 93, 95, 100, 102, 103, and 115 were also tested to determine if they affect the growth of P. gingivalis or S. gordonii. […] The sulfoxide group does impart asymmetry to the molecule; however, the mixture of enantiomers, assuming the peracid oxidation was racemic, was not separated and bioassayed. The Group III active compounds (95-117) all contain the 1,3,5-trisubstituted-2,4,6-triazine modeled after the Katzenellenbogen rendering of an active motif whereby the key leucine residues which mimicked the VXXLL receptor box lie in a triangular arrangement. While the original iteration of the Katzenellenbogen VXXLL mimics were the hydrophobic 3,5-disubstituted-di-N-alkyamino-triazine motifs, we introduced the hydrophobic 2- and 4-(fluorophenyl)amino groups at positions 3 and 5 of the 2,4,6-triazine (See Compounds 102, 111, 115, 122).
P. gingivalis ATCC33277 was grown in reduced trypticase soy broth (Difco) supplemented with 0.5 percent yeast extract, 1 μg/mL menadione, and 5 μg/mL hemin. Twenty five milliliters of medium were reduced for 24 h under anaerobic conditions by equilibrating in an atmosphere consisting of 10% CO2, 10% H2, and 80% N2. Following equilibration, P. gingivalis was inoculated in the media and grown for 48 h at 37° C. under anaerobic conditions. S. gordonii DL-1 (1) was cultured aerobically without shaking in brain heart infusion (BHI) broth supplemented with 1 percent yeast extract for 16 hours at 37° C. For some compounds that inhibited P. gingivalis adherence to S. gordonii, we determined their affect the planktonic growth of P. gingivalis and S. gordonii. Broth cultures were grown as described above and compared to cultures grown in the absence of the compound. Cell density of each culture was determined by measuring the optical density at 600 nm (O.D.600 nm) after 24 h of growth. The percent growth inhibition/stimulation was calculated using the following equation: [(O.D.600 nm of the control/O.D.600 nm of the culture grown in the presence of compound)−1]×100.
Two species biofilms were formed essentially as previously described. To prepare bacterial cells for biofilm culture, 10 ml of an overnight S. gordonii culture was centrifuged at 5600 rpm for 5 min and the cell pellet was suspended in 1 mL sterile PBS. Subsequently, 20 μL of 5 mg/ml hexidium iodide (Molecular Probes) was added to the cell suspension and incubated for 15 min with gentle shaking at room temperature in the dark. The labeled cells were centrifuged as described above, washed with phosphate buffered saline (10 mM Na2HPO4, […], […], and 2.7 mM KCl, pH 7.2; [PBS]) and the cell pellet was suspended in PBS at a final O.D.600 nm of 0.8. Similarly, 10 mL of a 48 h culture of P. gingivalis was centrifuged at 5600 rpm for 15 min, the cell pellet was suspended in 1 mL PBS and 20 μl of 5(6)-carboxyfluorescein N-hydroxysuccinimide ester (4 mg/ml, Molecular Probes, Inc.) was added. After incubation for 30 min with gentle shaking at room temperature in the dark, the suspension was centrifuged and washed as described above and suspended in PBS at a final O.D.600 nm of 0.4. […]

Compared with CCN(CC)c1nc(-c2cn(-c3cccc(-c4nc(-c5ccccc5)c(-c5ccccc5)o4)c3)nn2)nc(N(CC)CC)n1 [Compound 90], CCN(CC)c1nc(-c2cn(-c3ccc(-c4nc(-c5ccccc5)c(-c5ccccc5)o4)cc3)nn2)nc(N(CC)CC)n1 [Compound 91] is higher in IC50: 20.7 µM for the first, greater than 60 µM for the second.

Compared with CCN(CC)c1nc(-c2cn(-c3cccc(-c4nc(-c5ccc(F)cc5)c(-c5ccc(F)cc5)o4)c3)nn2)nc(N(CC)CC)n1 [Compound 92], CCN(CC)c1nc(-c2cn(-c3cccc(-c4nc(-c5ccc(Cl)cc5)c(-c5ccc(Cl)cc5)o4)c3)nn2)nc(N(CC)CC)n1 [Compound 94] is lower in IC50: greater than 60 µM for the first, 16 µM for the second. The second is the more potent here.

Going from CCN(CC)c1nc(-c2cn(-c3cccc(-c4nc(-c5ccc(OC)cc5)c(-c5ccc(OC)cc5)o4)c3)nn2)nc(N(CC)CC)n1 [Compound 96] to CCN(CC)c1nc(-c2cn(-c3ccc(-c4nc(-c5ccc(OC)cc5)c(-c5ccc(OC)cc5)o4)cc3)nn2)nc(N(CC)CC)n1 [Compound 97], the IC50 falls from greater than 60 µM to 36.6 µM.

CCN(CC)c1nc(-c2cn(-c3cccc(-c4nc(-c5ccco5)c(-c5ccco5)o4)c3)nn2)nc(N(CC)CC)n1 [Compound 98] and CCN(CC)c1nc(-c2cn(-c3ccc(-c4nc(-c5ccco5)c(-c5ccco5)o4)cc3)nn2)nc(N(CC)CC)n1 [Compound 99] cannot be ordered by IC50: greater than 60 µM for the first, greater than 60 µM for the second.

Fc1ccccc1Nc1nc(Nc2ccccc2F)nc(-c2cn(-c3ccc(-c4nc(-c5ccccc5)c(-c5ccccc5)o4)cc3)nn2)n1 [Compound 101] and Fc1ccccc1Nc1nc(Nc2ccccc2F)nc(-c2cn(-c3ccc(-c4nc(-c5ccc(Cl)cc5)c(-c5ccc(Cl)cc5)o4)cc3)nn2)n1 [Compound 105] cannot be ordered by IC50: greater than 60 µM for the first, greater than 60 µM for the second.

First: Fc1ccccc1Nc1nc(Nc2ccccc2F)nc(-c2cn(-c3cccc(-c4nc(-c5ccc(Cl)cc5)c(-c5ccc(Cl)cc5)o4)c3)nn2)n1 [Compound 104]
Second: COc1ccc(-c2nc(-c3cccc(-n4cc(-c5nc(Nc6ccccc6F)nc(Nc6ccccc6F)n5)nn4)c3)oc2-c2ccc(OC)cc2)cc1 [Compound 106]
The IC50 of the first is lower: 33.8 µM for the first, greater than 60 µM for the second.

Compared with COc1ccc(-c2nc(-c3ccc(-n4cc(-c5nc(Nc6ccccc6F)nc(Nc6ccccc6F)n5)nn4)cc3)oc2-c2ccc(OC)cc2)cc1 [Compound 107], Fc1ccccc1Nc1nc(Nc2ccccc2F)nc(-c2cn(-c3ccc(-c4nc(-c5ccco5)c(-c5ccco5)o4)cc3)nn2)n1 [Compound 109] is higher in IC50: 40 µM for the first, greater than 60 µM for the second.

Fc1ccccc1Nc1nc(Nc2ccccc2F)nc(-c2cn(-c3cccc(-c4nc(-c5ccco5)c(-c5ccco5)o4)c3)nn2)n1 [Compound 108] and Fc1ccc(Nc2nc(Nc3ccc(F)cc3)nc(-c3cn(-c4ccc(-c5nc(-c6ccccc6)c(-c6ccccc6)o5)cc4)nn3)n2)cc1 [Compound 112] cannot be ordered by IC50: greater than 60 µM for the first, greater than 60 µM for the second.

First: Fc1ccc(Nc2nc(Nc3ccc(F)cc3)nc(-c3cn(-c4ccccc4-c4nc(-c5ccccc5)c(-c5ccccc5)o4)nn3)n2)cc1 [Compound 110]
Second: Fc1ccc(Nc2nc(Nc3ccc(F)cc3)nc(-c3cn(-c4ccccc4-c4nc(-c5ccc(F)cc5)c(-c5ccc(F)cc5)o4)nn3)n2)cc1 [Compound 113]
The IC50 of the first is higher: greater than 60 µM for the first, 49.2 µM for the second.

Work on Fc1ccc(Nc2nc(Nc3ccc(F)cc3)nc(-c3cn(-c4cccc(-c5nc(-c6ccc(F)cc6)c(-c6ccc(F)cc6)o5)c4)nn3)n2)cc1 [Compound 114] yielded an IC50 greater than 60 µM.

Same assay, conditions: Table 2, Group I triazoles; concentration reducing ratio of green (P. gingivalis) to red (S. gordonii) fluorescence by 50%; approximated

First: [O-][S+](Cc1nc(-c2ccccc2)c(-c2ccccc2)o1)c1ccc(-n2cc(-c3cccnc3)nn2)cc1 (racemic) [Compound 28, 4,5-Diphenyl-2-(((4-(4-(pyridin-3-yl)-1H-1,2,3-triazol-1-yl)phenyl)sulfinyl)methyl) oxazole]
Second: [O-][S+](Cc1nc(-c2ccccc2)c(-c2ccccc2)o1)c1ccc(-n2cc(-c3cccc(F)c3)nn2)cc1 (centres unmarked) [Compound 30]
The IC50 of the first is higher: greater than 60 µM for the first, 47.3 µM for the second.

[O-][S+](Cc1nc(-c2ccccc2)c(-c2ccccc2)o1)c1ccc(-n2cc(-c3ccc(F)cc3)nn2)cc1 (centres unmarked) [Compound 29] and CCCCCc1ccc(-c2cn(-c3ccc([S+]([O-])Cc4nc(-c5ccccc5)c(-c5ccccc5)o4)cc3)nn2)cc1 (centres unmarked) [Compound 34] cannot be ordered by IC50: greater than 60 µM for the first, greater than 60 µM for the second.

COc1ccccc1-c1cn(-c2ccc([S+]([O-])Cc3nc(-c4ccccc4)c(-c4ccccc4)o3)cc2)nn1 (centres unmarked) [Compound 31] and [O-][S+](Cc1nc(-c2ccccc2)c(-c2ccccc2)o1)c1ccc(-n2cc(-c3ccccc3C(F)(F)F)nn2)cc1 (centres unmarked) [Compound 32] cannot be ordered by IC50: greater than 60 µM for the first, greater than 60 µM for the second.

COc1ccc2cc(-c3cn(-c4ccc([S+]([O-])Cc5nc(-c6ccccc6)c(-c6ccccc6)o5)cc4)nn3)ccc2c1 (centres unmarked) [Compound 33] and COc1ccc2cc(-c3cn(-c4ccc(S(=O)(=O)Cc5nc(-c6ccccc6)c(-c6ccccc6)o5)cc4)nn3)ccc2c1 [Compound 42] cannot be ordered by IC50: greater than 60 µM for the first, greater than 60 µM for the second.

Going from [O-][S+](Cc1nc(-c2ccccc2)c(-c2ccccc2)o1)c1ccc(-n2cc(-c3ccc(Oc4ccccc4)cc3)nn2)cc1 (centres unmarked) [Compound 35] to O=S(=O)(Cc1nc(-c2ccccc2)c(-c2ccccc2)o1)c1ccc(-n2cc(-c3ccc(Oc4ccccc4)cc3)nn2)cc1 [Compound 44], the IC50 falls from greater than 60 µM to 16.5 µM. The second is the more potent here.

First: [O-][S+](Cc1nc(-c2ccccc2)c(-c2ccccc2)o1)c1ccc(-n2cc(-c3cc(C(F)(F)F)cc(C(F)(F)F)c3)nn2)cc1 (centres unmarked) [Compound 36]
Second: O=S(=O)(Cc1nc(-c2ccccc2)c(-c2ccccc2)o1)c1ccc(-n2cc(-c3cc(C(F)(F)F)cc(C(F)(F)F)c3)nn2)cc1 [Compound 45]
The IC50 of the first is higher: greater than 60 µM for the first, 38.5 µM for the second. The second is the more potent here.

Going from O=S(=O)(Cc1nc(-c2ccccc2)c(-c2ccccc2)o1)c1ccc(-n2cc(-c3cccnc3)nn2)cc1 [Compound 37] to O=S(=O)(Cc1nc(-c2ccccc2)c(-c2ccccc2)o1)c1ccc(-n2cc(-c3cccc(F)c3)nn2)cc1 [Compound 39], the IC50 falls from greater than 60 µM to 33.6 µM. The second is the more potent here.

First: O=S(=O)(Cc1nc(-c2ccccc2)c(-c2ccccc2)o1)c1ccc(-n2cc(-c3ccc(F)cc3)nn2)cc1 [Compound 38]
Second: CCCCCc1ccc(-c2cn(-c3ccc(S(=O)(=O)Cc4nc(-c5ccccc5)c(-c5ccccc5)o4)cc3)nn2)cc1 [Compound 43]
The IC50 of the first is 2.3-fold lower: 15.7 µM for the first, 36.6 µM for the second. The first is the more potent here.

First: COc1ccccc1-c1cn(-c2ccc(S(=O)(=O)Cc3nc(-c4ccccc4)c(-c4ccccc4)o3)cc2)nn1 [Compound 40]
Second: O=S(=O)(Cc1nc(-c2ccccc2)c(-c2ccccc2)o1)c1ccc(-n2cc(-c3ccccc3C(F)(F)F)nn2)cc1 [Compound 41]
The IC50 of the first is lower: 13.1 µM for the first, greater than 60 µM for the second.

Same assay, conditions: Table 3, Group II click products; concentration reducing green to red fluorescence ratio by 50%; approximated

In order of falling IC50:
1. [O-][S+](Cc1nc(-c2ccc(Cl)cc2)c(-c2ccc(Cl)cc2)o1)c1ccc(-n2cc(-c3ccc(F)cc3)nn2)cc1 (centres unmarked) [Compound 50]  39.8 µM
2. [O-][S+](Cc1nc(-c2ccc(F)cc2)c(-c2ccc(F)cc2)o1)c1ccc(-n2cc(-c3ccc(F)cc3)nn2)cc1 (centres unmarked) [Compound 47]  35.9 µM
3. O=S(=O)(Cc1nc(-c2ccc(Cl)cc2)c(-c2ccc(Cl)cc2)o1)c1ccc(-n2cc(-c3cccc(F)c3)nn2)cc1 [Compound 55]  18.2 µM
4. [O-][S+](Cc1nc(-c2ccc(Cl)cc2)c(-c2ccc(Cl)cc2)o1)c1ccc(-n2cc(-c3cccc(F)c3)nn2)cc1 (centres unmarked) [Compound 49]  15.1 µM
5. COc1ccccc1-c1cn(-c2ccc([S+]([O-])Cc3nc(-c4ccc(Cl)cc4)c(-c4ccc(Cl)cc4)o3)cc2)nn1 (centres unmarked) [Compound 51]  10.2 µM
6. COc1ccccc1-c1cn(-c2ccc([S+]([O-])Cc3nc(-c4ccc(F)cc4)c(-c4ccc(F)cc4)o3)cc2)nn1 (centres unmarked) [Compound 48]  7.2 µM
7. [O-][S+](Cc1nc(-c2ccc(F)cc2)c(-c2ccc(F)cc2)o1)c1ccc(-n2cc(-c3cccc(F)c3)nn2)cc1 (centres unmarked) [Compound 46]  5.3 µM
